Among the data in patent US12304916B2, “Thienopyridinyl and thiazolopyridinyl compounds useful as IRAK4 inhibitors” (BRISTOL-MYERS SQUIBB COMPANY, priority 2019, dated 2025) are IC50 and EC50 values, retold here.

The target in experiment [1] is IRAK4 (Homo sapiens (Human), UniProt Q9NWZ3). Description: IRAK4 Inhibition Assay. The note with it: ATP 500 μM; IRAK4 0.6 nM; 60 min at room temperature. The experiment is classed as biochemical.
The subject of experiment [2] is IL-6 levels in human whole blood stimulated with a TLR2 agonist (lipoteichoic acid). Kind of experiment: IRAK4 Whole Blood Assay. As to conditions: 10 μg/mL lipoteichoic acid for 5 hours, IL-6 readout. In kind it is cell-based. The method, then:
Human whole blood containing the anti-coagulant ACD-A was plated in 384-well plate (25 μL/well) and incubated with compounds for 60 minutes at 37° C. in a 5% CO2 incubator. The blood was stimulated with a TLR2 agonist, 10 μg/mL final concentration of lipoteichoic acid (Invivogen, San Diego, CA) in 25 μL RPMI (Gibco) for 5 hours in a 5% CO2 incubator. At the end of the incubation, plates were centrifuged at 2300 rpm for 5 minutes. Supernatants were harvested and analyzed for IL-6 levels by Flow Cytometry beads assay (BD Biosciences, San Jose, CA).

IRAK4, sequence (Q9NWZ3 whole entry, species assumed): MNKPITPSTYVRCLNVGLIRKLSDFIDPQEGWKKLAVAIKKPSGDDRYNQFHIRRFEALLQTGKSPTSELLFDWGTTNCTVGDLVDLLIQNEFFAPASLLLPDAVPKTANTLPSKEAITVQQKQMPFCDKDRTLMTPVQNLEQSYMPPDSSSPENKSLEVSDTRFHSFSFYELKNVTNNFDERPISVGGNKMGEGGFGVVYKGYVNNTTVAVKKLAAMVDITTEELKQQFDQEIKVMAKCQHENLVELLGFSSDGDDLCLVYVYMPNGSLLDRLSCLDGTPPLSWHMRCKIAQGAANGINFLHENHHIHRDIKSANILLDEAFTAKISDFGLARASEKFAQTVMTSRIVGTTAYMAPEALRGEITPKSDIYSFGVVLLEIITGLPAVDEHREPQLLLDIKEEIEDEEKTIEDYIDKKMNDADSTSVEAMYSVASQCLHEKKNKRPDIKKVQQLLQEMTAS

The IC50 is the concentration that gives 50% inhibition. What is called EC50 is the concentration needed to bring the measured effect to its halfway point. Higher therefore signals weaker potency. In the case of `CC(C)Nc1c(C(=O)NCc2ncn[nH]2)cnc2sc(-c3cncs3)cc12` [Example 42, N-((1H-1,2,4-triazol-5-yl)methyl)-4-(isopropylamino)-2-(thiazol-5-yl)thieno[2,3-b]pyridine-5-carboxamide], in experiment [1], the IC50 worked out at 0.0122 µM. Besides, the half-maximal effective concentration (EC50) in experiment [2] is above 20 µM.
Regarding `CC(C)Nc1c(-c2cn(CCCO)nn2)cnc2sc(-c3cncs3)cc12` [Example 79, 3-(4-(4-(isopropylamino)-2-(thiazol-5-yl)thieno[2,3-b]pyridin-5-yl)-1H-1,2,3-triazol-1-yl)propan-1-ol], the 50% inhibitory concentration (IC50) in experiment [1] amounted to 0.0023 µM. Further, the EC50 in experiment [2] is above 10 µM.
`CC(C)Nc1c(C(=O)NC[C@@H](F)C(C)(C)O)cnc2sc(-c3ccncc3)cc12` [Example 23, (R)-N-(2-fluoro-3-hydroxy-3-methylbutyl)-4-(isopropylamino)-2-(pyridin-4-yl) thieno[2,3-b]pyridine-5-carboxamide]: the IC50 in experiment [1] is 0.0048 µM. Besides, the half-maximal effective concentration (EC50) in experiment [2] came out at 4.25 µM.
Consider `CC(C)Nc1c(C(=O)NC[C@@H](F)C(C)(C)O)cnc2sc(-c3ccnnc3)cc12` [Example 32, (R)-N-(2-fluoro-3-hydroxy-3-methylbutyl)-4-(isopropylamino)-2-(pyridazin-4-yl)thieno[2,3-b]pyridine-5-carboxamide], for which, in experiment [1], the IC50 turned out to be 0.0103 µM. Moreover, in experiment [2], the EC50 was above 20 µM.
As to `CC(C)Nc1c(C(=O)NC[C@@H](F)C(C)(C)O)cnc2sc(-c3cccnc3)cc12` [Example 22, (R)-N-(2-fluoro-3-hydroxy-3-methylbutyl)-4-(isopropylamino)-2-(pyridin-3-yl)thieno[2,3-b]pyridine-5-carboxamide], the 50% inhibitory concentration (IC50) in experiment [1] came out at 0.0053 µM. In addition, the EC50 in experiment [2] is 3.42 µM.
As to `CC(C)Nc1c(-c2cn(CC3CC3)nn2)cnc2sc(-c3cncs3)cc12` [Example 78, 5-(1-(cyclopropylmethyl)-1H-1,2,3-triazol-4-yl)-N-isopropyl-2-(thiazol-5-yl)thieno[2,3-b]pyridin-4-amine], in experiment [1], the half-maximal inhibitory concentration (IC50) was determined as 0.0088 µM. Also, the EC50 in experiment [2] was above 20 µM.
For `CCOCCNC(=O)c1cnc2sc(-c3cncs3)cc2c1NC(C)C` [Example 43, N-(2-ethoxyethyl)-4-(isopropylamino)-2-(thiazol-5-yl)thieno[2,3-b]pyridine-5-carboxamide], the concentration for half-maximal inhibition (IC50) in experiment [1] amounted to 0.0171 µM. Besides, the EC50 in experiment [2] was above 20 µM.
On the same counts, the results for `CC(C)Nc1c(C(=O)NCCC(C)(C)O)cnc2sc(-c3cncs3)cc12` [Example 44, N-(3-hydroxy-3-methylbutyl)-4-(isopropylamino)-2-(thiazol-5-yl)thieno[2,3-b]pyridine-5-carboxamide] are 0.0082 µM and 0.66 µM.
Turning to `CC(C)Nc1c(C(=O)NC[C@@H](F)C(C)(C)O)cnc2sc(-c3cncs3)cc12` [Example 27, (R)-N-(2-fluoro-3-hydroxy-3-methylbutyl)-4-(isopropylamino)-2-(thiazol-5-yl) thieno[2,3-b]pyridine-5-carboxamide], the IC50 in experiment [1] stood at 0.002 µM. This molecule also gave an EC50 in experiment [2] of 0.58 µM.
